Reference: patent US12384758B2, “Crystalline form of LNP023” (Novartis AG, priority 2020, dated 2025)

Test: Dynamic vapor sorption (DVS) isotherms, 0 to 95% relative humidity
Assay type: physicochemical
Conditions: 25±1.0° C.
Procedure: Dynamic vapor sorption isotherms were recorded with a DVS Advantage instrument. The measurement cycle was started at ambient relative humidity (RH) of 40%. RH was then decreased to 0% in 10% steps. […] 5% steps. Finally, RH was increased to ambient relative humidity of 40% in 10% steps. The time per step was set to a minimum of 3 hours and a maximum of 6 hours. If an equilibrium condition with a constant mass change of 0.002%/min for a minimum of 5 min was reached before the maximum time for all examined samples the sequential humidity step was applied before the maximum time of 6 hours. If no equilibrium was achieved the consecutive humidity step was applied after the maximum time of 6 hours. The temperature was 25±1.0° C.
Therefore, Form HB of LNP023 hydrochloride described herein can be assigned as being non-hygroscopic.

Structure (SMILES): CCO[C@H]1CCN(Cc2c(OC)cc(C)c3[nH]ccc23)[C@H](c2ccc(C(=O)O)cc2)C1.Cl [Form HB of LNP023 hydrochloride, 4-((2S,4S)-(4-ethoxy-1-((5-methoxy-7-methyl-1H-indol-4-yl)methyl)piperidin-2-yl))benzoic acid hydrochloride]
- hysteresis between the sorption and desorption curve (DVS sorption 0% to 95% RH, desorption 95 to 0% RH): no significant hysteresis
- mass difference between 40 and 95% RH (DVS equilibrium mass change) (DVS, reference weight at 0% RH): less than 0.2 weight %
- PXRD after the DVS experiment (physical stability of the form) (after DVS cycle 0 to 95% RH): remains unchanged
- hygroscopicity assignment (from DVS, non-hygroscopic defined in b47 as mass increase of less than 0.2% at 80% RH at 25° C.): non-hygroscopic
